pEC50: −log10 of the molar value. Non-standard residues stand in square brackets, D forms with d. Residues, ends and D or L forms follow the SMILES beside them. ξ: configuration not given here. *: point of attachment. ξF = NC(Cc1ccccc1)C(=O)O; Cbz = O=C(OCc1ccccc1)*
What follows are compounds tested against T1, Solute carrier family 12 member 5 (Homo sapiens, UniProt Q9H2X9) (assay: concentration-response of KCC2 transport modulators – cell-based, HEK293 KCC2, FluoZin-2 fluorescence, dose response (AID 1736)). Details: not given.
T1 sequence (Q9H2X9 whole entry): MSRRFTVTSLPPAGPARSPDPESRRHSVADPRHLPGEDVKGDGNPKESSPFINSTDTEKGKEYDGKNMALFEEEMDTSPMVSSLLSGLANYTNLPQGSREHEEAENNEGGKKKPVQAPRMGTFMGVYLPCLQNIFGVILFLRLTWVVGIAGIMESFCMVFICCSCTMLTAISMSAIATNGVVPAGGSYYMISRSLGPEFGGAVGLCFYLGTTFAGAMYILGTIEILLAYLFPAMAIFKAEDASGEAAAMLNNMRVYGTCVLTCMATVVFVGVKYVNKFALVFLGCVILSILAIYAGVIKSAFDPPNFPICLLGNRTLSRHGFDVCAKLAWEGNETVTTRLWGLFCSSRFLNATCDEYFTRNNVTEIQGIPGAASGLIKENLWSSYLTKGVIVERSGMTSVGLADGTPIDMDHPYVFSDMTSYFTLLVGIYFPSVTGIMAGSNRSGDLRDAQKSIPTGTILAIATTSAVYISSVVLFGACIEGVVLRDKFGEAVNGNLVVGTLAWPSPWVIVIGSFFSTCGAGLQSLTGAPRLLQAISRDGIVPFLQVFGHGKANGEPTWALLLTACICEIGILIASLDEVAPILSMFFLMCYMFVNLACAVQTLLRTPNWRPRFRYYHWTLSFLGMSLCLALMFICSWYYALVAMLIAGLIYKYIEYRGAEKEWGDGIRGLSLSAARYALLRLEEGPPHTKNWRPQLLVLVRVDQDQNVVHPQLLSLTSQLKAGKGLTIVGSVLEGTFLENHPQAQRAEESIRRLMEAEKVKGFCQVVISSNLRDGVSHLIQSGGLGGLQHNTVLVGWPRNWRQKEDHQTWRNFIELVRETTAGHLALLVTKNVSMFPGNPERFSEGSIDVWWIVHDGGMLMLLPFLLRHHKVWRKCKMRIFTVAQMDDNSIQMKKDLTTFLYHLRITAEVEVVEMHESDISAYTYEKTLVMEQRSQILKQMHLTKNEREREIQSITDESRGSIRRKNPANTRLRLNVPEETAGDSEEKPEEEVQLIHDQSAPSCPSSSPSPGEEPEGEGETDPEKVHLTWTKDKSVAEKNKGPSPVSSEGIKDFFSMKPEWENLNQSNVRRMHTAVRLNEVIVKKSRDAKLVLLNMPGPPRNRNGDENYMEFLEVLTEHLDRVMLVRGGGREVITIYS

How did the pEC50 turn out when `CC1CCCCN1C(=O)CSc1ccc(-c2ccc(F)cc2)nn1` (stereo not drawn) [2-[6-(4-Fluoro-phenyl)-pyridazin-3-ylsulfanyl]-1-(2-methyl-piperidin-1-yl)-ethanone] was run?
Its pEC50 is 5.42.

With `CC1CCN(C(=O)CSc2ccc(-c3ccc(F)cc3)nn2)CC1` [2-[6-(4-Fluoro-phenyl)-pyridazin-3-ylsulfanyl]-1-(4-methyl-piperidin-1-yl)-ethanone] as the compound, how does the pEC50 read?
The pEC50 was 5.36.

With `Cc1ccc(NC(=O)CSc2ccc(-c3ccco3)nn2)cc1` [2-[6-(furan-2-yl)pyridazin-3-yl]sulfanyl-N-(4-methylphenyl)acetamide] as the compound, how does the pEC50 read?
The pEC50 was 5.34.

How did the pEC50 turn out when `CCC(Cc1ccccc1)NC(=O)CN(C)S(=O)(=O)c1ccc2c(c1)c(=O)n(C)c(=O)n2C` (stereo not drawn) [2-[(1,3-dimethyl-2,4-dioxo-6-quinazolinyl)sulfonyl-methylamino]-N-(1-phenylbutan-2-yl)acetamide] was run?
The pEC50 was 5.11.

How did the pEC50 turn out when `Cc1[nH]c2ccccc2c1SCC(=O)N1CCN(c2ccccc2)CC1` [2-[(2-methyl-1H-indol-3-yl)thio]-1-(4-phenyl-1-piperazinyl)ethanone] was run?
Its pEC50 is 5.26.

With `Cc1ccc(/C=C2/Sc3ccccc3N(CC(=O)NCCCOC(C)C)C2=O)cc1` [2-[(2E)-2-[(4-methylphenyl)methylidene]-3-oxidanylidene-1,4-benzothiazin-4-yl]-N-(3-propan-2-yloxypropyl)ethanamide] as the compound, how does the pEC50 read?
Its pEC50 is 4.68.

How did the pEC50 turn out when `COc1ccc(S(=O)(=O)N(CCc2ccccc2)CC(=O)O)cc1Cl` [2-[(3-chloranyl-4-methoxy-phenyl)sulfonyl-(2-phenylethyl)amino]ethanoic acid] was run?
The pEC50 was 4.92.

How did the pEC50 turn out when `O=C(NCCOc1ccccc1F)c1ccccc1SCc1ccc(F)cc1` [2-[(4-fluorobenzyl)thio]-N-[2-(2-fluorophenoxy)ethyl]benzamide] was run?
The pEC50 was 6.14.

How did the pEC50 turn out when `Cc1ccc(NC(=O)c2ccccc2NS(=O)(=O)c2ccc(Cl)s2)cc1` [2-[(5-chloranylthiophen-2-yl)sulfonylamino]-N-(4-methylphenyl)benzamide] was run?
The pEC50 was 5.97.

With `N#Cc1c(NC(=O)CSc2nc(N)cc(=O)[nH]2)sc2c1CCCCCC2` [2-[(6-amino-4-oxo-1H-pyrimidin-2-yl)sulfanyl]-N-(3-cyano-4,5,6,7,8,9-hexahydrocycloocta[b]thiophen-2-yl)acetamide] as the compound, how does the pEC50 read?
Its pEC50 is 3.63.

With `CCOC(=O)CNC(=O)C(Cc1ccccc1)NC(=O)OCc1ccccc1` (stereo not drawn) [2-[[1-oxo-3-phenyl-2-(phenylmethoxycarbonylamino)propyl]amino]acetic acid ethyl ester] (Cbz-[ξF]-Gly-OEt) as the compound, how does the pEC50 read?
The pEC50 was 5.67.

How did the pEC50 turn out when `Cc1ccc(Cn2c(SCC(=O)Nc3cc(C)on3)nc3ccccc3c2=O)cc1` [2-[[4-keto-3-(4-methylbenzyl)quinazolin-2-yl]thio]-N-(5-methylisoxazol-3-yl)acetamide] was run?
Its pEC50 is 4.19.

With `Cc1ccccc1-c1nc(C[S+]([O-])CC(=O)NCc2ccccc2)c(C)o1` (stereo not drawn) [2-[[5-methyl-2-(2-methylphenyl)-1,3-oxazol-4-yl]methylsulfinyl]-N-(phenylmethyl)ethanamide] as the compound, how does the pEC50 read?
The pEC50 was 5.09.

`Cc1ccccc1-c1nc(CS(=O)(=O)CC(=O)NCc2ccccc2)c(C)o1` [2-[[5-methyl-2-(2-methylphenyl)-1,3-oxazol-4-yl]methylsulfonyl]-N-(phenylmethyl)ethanamide] was tested. Which pEC50 did it give?
The pEC50 was 3.96.

With `COc1ccc(-c2cc(CNC(=O)CN(C)Cc3ccccc3)on2)cc1` [2-[benzyl(methyl)amino]-N-[[3-(4-methoxyphenyl)-1,2-oxazol-5-yl]methyl]acetamide] as the compound, how does the pEC50 read?
The pEC50 was 4.61.

How did the pEC50 turn out when `CC(=O)NC(C)C(=O)OCC(=O)c1ccc(-c2ccccc2)cc1` (stereo not drawn) [2-acetamidopropanoic acid [2-oxo-2-(4-phenylphenyl)ethyl] ester] was run?
Its pEC50 is 4.86.

How did the pEC50 turn out when `N#CC1=C(SCc2ccccc2)N=C(N)C(C#N)C12CCCCC2` (stereo not drawn) [2-azanyl-4-(phenylmethylsulfanyl)-3-azaspiro[5.5]undeca-1,4-diene-1,5-dicarbonitrile] was run?
Its pEC50 is 4.92.

`CN(Cc1ccccc1)S(=O)(=O)c1ccc(Cl)c(C(=O)NCCc2ccccn2)c1` [2-chloranyl-5-[methyl-(phenylmethyl)sulfamoyl]-N-(2-pyridin-2-ylethyl)benzamide] was tested. Which pEC50 did it give?
The pEC50 was 6.42.

How did the pEC50 turn out when `Cc1ccc(-c2csc(NC(=O)CCNC(=O)c3ccccc3Cl)n2)cc1` [2-chloranyl-N-[3-[[4-(4-methylphenyl)-1,3-thiazol-2-yl]amino]-3-oxidanylidene-propyl]benzamide] was run?
The pEC50 was 5.69.

`O=C(NC(=S)Nc1nc(-c2cccc([N+](=O)[O-])c2)cs1)c1ccccc1Cl` [2-chloranyl-N-[[4-(3-nitrophenyl)-1,3-thiazol-2-yl]carbamothioyl]benzamide] was tested. Which pEC50 did it give?
The pEC50 was 5.13.

How did the pEC50 turn out when `COc1ccccc1C(=O)NC1CCN(C(=S)NCCc2ccccc2)CC1` [2-methoxy-N-[1-(2-phenylethylcarbamothioyl)piperidin-4-yl]benzamide] was run?
Its pEC50 is 5.37.

With `Cc1cc([N+](=O)[O-])ccc1NCc1ccccc1` [2-methyl-4-nitro-N-(phenylmethyl)aniline] as the compound, how does the pEC50 read?
Its pEC50 is 5.43.

With `O=C(C1CCN(S(=O)(=O)c2cccc3nsnc23)CC1)N1CCc2ccccc2C1` [2-{[1-(2,1,3-benzothiadiazol-4-ylsulfonyl)piperidin-4-yl]carbonyl}-1,2,3,4-tetrahydroisoquinoline] as the compound, how does the pEC50 read?
Its pEC50 is 4.62.

With `Cc1noc(/C=C/c2ccco2)c1S(=O)(=O)N1CCC(C(=O)N2CCc3ccccc3C2)CC1` [2-{[1-({5-[(E)-2-(2-furyl)vinyl]-3-methylisoxazol-4-yl}sulfonyl)piperidin-4-yl]carbonyl}-1,2,3,4-tetrahydroisoquinoline] as the compound, how does the pEC50 read?
The pEC50 was 5.41.

With `COc1cc(OC)c(C2=NOC(C(=O)N3CCc4ccccc4C3)C2)cc1Cl` (stereo not drawn) [2-{[3-(5-chloro-2,4-dimethoxyphenyl)-4,5-dihydro-5-isoxazolyl]carbonyl}-1,2,3,4-tetrahydroisoquinoline] as the compound, how does the pEC50 read?
Its pEC50 is 5.26.

With `O=C(C1CCN(S(=O)(=O)c2cccs2)CC1)N1CCc2ccccc2C1` [3,4-dihydro-1H-isoquinolin-2-yl-(1-thiophen-2-ylsulfonyl-4-piperidinyl)methanone] as the compound, how does the pEC50 read?
The pEC50 was 2.58.

How did the pEC50 turn out when `O=C(C1CCN(c2nnc(-n3cccc3)s2)CC1)N1CCc2ccccc2C1` [3,4-dihydro-1H-isoquinolin-2-yl-[1-(5-pyrrol-1-yl-1,3,4-thiadiazol-2-yl)-4-piperidyl]methanone] was run?
The pEC50 was 5.02.

Same assay, conditions: inactive by the depositor's call

`N#Cc1nc(COc2ccccc2F)oc1NCc1ccc(F)cc1` [2-[(2-fluoranylphenoxy)methyl]-5-[(4-fluorophenyl)methylamino]-1,3-oxazole-4-carbonitrile] was tested. Which pEC50 did it give?
Its pEC50 is 5.73.

With `O=C(CSc1nc2cc(Cl)ccc2s1)Nc1cccc(S(=O)(=O)N2CCOCC2)c1` [2-[(5-chloranyl-1,3-benzothiazol-2-yl)sulfanyl]-N-(3-morpholin-4-ylsulfonylphenyl)ethanamide] as the compound, how does the pEC50 read?
Its pEC50 is 4.60.

With `N=C1SCC(=O)N1c1ncc(Cc2cccc(Cl)c2)s1` [2-azanylidene-3-[5-[(3-chlorophenyl)methyl]-1,3-thiazol-2-yl]-1,3-thiazolidin-4-one] as the compound, how does the pEC50 read?
Its pEC50 is 5.50.

With `C=CCN(c1ccc(OC)cc1)S(=O)(=O)c1ccc(Cl)c(C(=O)OCC(=O)NC2CC2)c1` [2-chloro-5-[(4-methoxyphenyl)-prop-2-enylsulfamoyl]benzoic acid [2-(cyclopropylamino)-2-oxoethyl] ester] as the compound, how does the pEC50 read?
Its pEC50 is 5.20.

How did the pEC50 turn out when `c1coc(CNc2nc3nonc3nc2NCc2ccco2)c1` [2-furfuryl-[5-(2-furfurylamino)furazano[3,4-b]pyrazin-6-yl]amine] was run?
The pEC50 was 4.36.

`CC1=C(C(=O)OCCOc2ccccc2)C(c2ccsc2)NC(=O)N1C` (stereo not drawn) [2-phenoxyethyl 3,4-dimethyl-2-oxo-6-thiophen-3-yl-1,6-dihydropyrimidine-5-carboxylate] was tested. Which pEC50 did it give?
The pEC50 was 4.21.
